Consider 47 molecules from patent US11286268B1, “EIF4E-inhibiting compounds and methods” (EFFECTOR THERAPEUTICS, INC., priority 2019, dated 2022).

Where two headings read alike, the source gives them in different places.

The test addresses recombinant eIF4E (Homo sapiens (Human), UniProt P06730). Put plainly: Fluorescence polarization competition assay for eIF4E binding potency. The gist of the method: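 FP readout; IC50 fit from 8-point, 3-fold series. 75 nM eIF4E + 20 nM ATTO-550-labelled m7GDP probe, Tris pH 7.5/NaCl/DTT/Tween buffer, 1% DMSO final. 30 min RT equilibration, light-protected.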
(In fluorescence polarisation assays a small probe gives low polarisation when free and higher when bound to something large.)

[1] abbreviates: fluorescence polarization competition, 75 nM recombinant eIF4E, 20 nM EDA-m7GDP-ATTO-550, IC50 class, read-out: elF4E FP.
Setting [2] is: inhibition of eIF4E/EDA-m7GDP-ATTO-550 binding by 50%, Table 4B calculated values, read-out: IC50.
[3] abbreviates: inhibition of eIF4E/EDA-m7GDP-ATTO-550 binding, calculated IC50 values, Table 4B, read-out: IC50.

recombinant eIF4E, sequence (P06730 whole entry): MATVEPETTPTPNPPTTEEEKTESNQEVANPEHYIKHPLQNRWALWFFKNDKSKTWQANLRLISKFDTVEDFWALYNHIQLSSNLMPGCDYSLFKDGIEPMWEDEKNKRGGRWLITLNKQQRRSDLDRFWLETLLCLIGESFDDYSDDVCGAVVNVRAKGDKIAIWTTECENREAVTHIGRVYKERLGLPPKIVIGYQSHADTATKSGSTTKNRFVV

For the molecule `Cc1cc(-c2cc(Cl)ccc2OCCn2c(C)nc3cc(C(F)(F)F)c(CC4CCN(C)CC4)c(C#N)c3c2=O)c2scc(C(=O)O)c2n1` [compound 713], the IC50 under setting [1] was below 50 nM and the IC50 under setting [2] is 31.4 nM.
On to `Cc1nc2cnc(N(C)C3CCN([C@H]4C[C@H](F)C4)CC3)c(C#N)c2c(=O)n1CC#Cc1ccc(Cl)cc1-c1ccnc2c(C(=O)NS(C)(=O)=O)csc12` [compound 1602], for which the IC50 under setting [3] was 3.88 nM.
Take `CC(C)(C)c1cc(C(=O)O)cc(-c2cc(Cl)ccc2OCCn2cnc3cnc(C#N)cc3c2=O)c1` [compound 105]: the IC50 is, setting by setting: under setting [1], above 1000 nM; under setting [2], above 3000 nM.
`Cc1nc2cc(C(F)(F)F)c(N3CCN(C)CC3)c(C#N)c2c(=O)n1CCOc1ccc(Cl)cc1-c1ccnc(C(=O)O)c1` [compound 1221]: the IC50 runs as follows: under setting [1], below 50 nM; under setting [3], 30 nM.
As to `Cc1nc2cnc(N(C)C3CCN(CC4(F)CC4)CC3)c(C#N)c2c(=O)n1CC#Cc1ccc(Cl)cc1-c1ccnc2c(C(=O)O)csc12` [compound 1169], the IC50 runs as follows: under setting [1], below 50 nM; under setting [2], 15.3 nM.
For `Cc1nc2cc(C(F)(F)F)cc(C#N)c2c(=O)n1CCOc1ccc(C#N)nc1-c1ccnc2c(C(=O)O)csc12` [compound 292], in that order: 50 to 1000 nM and 203 nM.
As to `Cc1nc2cnc(CCN(C)CC(F)F)c(C#N)c2c(=O)n1CC#Cc1ccc(Cl)cc1-c1ccnc2c(C(=O)O)csc12` [compound 1492], the IC50 under setting [3] was 20.1 nM.
`Cc1cc(-c2cc(Cl)ccc2OCCn2c(C)nc3cc(C(F)(F)F)c(-c4cnc(C(F)F)cn4)c(C#N)c3c2=O)c2scc(C(=O)O)c2n1` [compound 1025]: the IC50 under setting [1] was below 50 nM and the IC50 under setting [2] is 30 nM.
Taken in the same sequence, the figures for `Cc1cc(-c2cc(Cl)ccc2OCCn2c(C)nc3cc(F)c(CN4CCN(C)CC4)c(C#N)c3c2=O)c2scc(C(=O)O)c2n1` [compound 366] were below 50 nM and 6.66 nM.
For `Cc1cc(-c2cc(Cl)ccc2OCCn2c(C)nc3cc(C(F)(F)F)c(CN4CCN(CC(F)F)CC4)c(C#N)c3c2=O)c2scc(C(=O)O)c2n1` [compound 739], in that order: below 50 nM and 30.8 nM.
Regarding `Cc1cc(-c2cc(Cl)ccc2OCCn2c(C)nc3cc(C(F)(F)F)c(-n4ccnc4)c(C#N)c3c2=O)c2scc(C(=O)O)c2n1` [compound 632], the IC50 is below 50 nM under setting [1] and 12 nM under setting [2].
`Cc1nc2cc(C(F)(F)F)cc(C#N)c2c(=O)n1CC#Cc1ccc(Cl)cc1-c1ccnc2c(C(=O)O)csc12` [compound 1901]: under setting [3], the IC50 is 35.7 nM.
On to `Cc1nc2cncc(C#N)c2c(=O)n1CC#Cc1ccc(Cl)cc1-c1ccnc2c(C(=O)O)csc12` [compound 624], for which the IC50 reads like this: under setting [1], below 50 nM; under setting [2], 4.02 nM.
Taken in the same sequence, the figures for `Cc1cc(-c2cc(Cl)ccc2OCCn2c(C)nc3c(C)nc(-c4ccc(F)cc4)c(C#N)c3c2=O)c2scc(C(=O)O)c2n1` [compound 474] were below 50 nM and 13.5 nM.
For `Cc1sc2c(-c3cc(Cl)ccc3OCCn3c(C)nc4cc(C(F)(F)F)c(CN(C)C)c(C#N)c4c3=O)ccnc2c1C(=O)O` [compound 556], in that order: below 50 nM and 22.7 nM.
For `Cc1nc2cc(C(F)(F)F)cc(C#N)c2c(=O)n1CCOc1ccc(Cl)cc1-c1ccc(F)c2c(C(=O)O)csc12` [compound 122], in that order: below 50 nM and 24.4 nM.
In the case of `Cc1nc2cnc(C3CCC(N(C)CC(F)(F)F)C3)c(C#N)c2c(=O)n1CCOc1ccc(Cl)cc1-c1ccnc2c(C(=O)O)csc12` (stereo not shown) [compound 1427], under setting [3], the IC50 was 14.3 nM.
As to `Cc1nc2cc(F)cc(C#N)c2c(=O)n1CCOc1ccc(Cl)cc1-c1cccc(C(=O)O)c1` [compound 167], the IC50 runs as follows: under setting [1], 50 to 1000 nM; under setting [2], 101 nM.
In the case of `Cc1nc2cnc(N(C)C3CCN(C4CC4)CC3)c(C#N)c2c(=O)n1CCOc1ccc(Cl)cc1-c1ccnc2c(C(=O)O)csc12` [compound 1319], under setting [3], the IC50 was 13.6 nM.
Still for that read-out and setting: the result for `Cc1nc2cnc(N(C)C3CCN(C4CC(F)(F)C4)CC3)c(C#N)c2c(=O)n1CC#Cc1ccc(Cl)cc1-c1ccnc2c(C(=O)NS(=O)(=O)C3CCC3)csc12` [compound 1810] reads 12.9 nM.
As to `Cc1cc(-c2cc(Cl)ccc2OCCn2c(C)nc3cc(Cl)c(N)c(C#N)c3c2=O)c2scc(C(=O)O)c2n1` [compound 692], the IC50 under setting [1] is below 50 nM and the IC50 under setting [2] was 5.97 nM.
For `Cc1cc(-c2cc(Cl)ccc2OCCn2c(C)nc3cc(C(F)(F)F)c(-c4ccccn4)cc3c2=O)c2scc(C(=O)O)c2n1` [compound 426], in that order: below 50 nM and 41.2 nM.
With `Cc1cc(-c2c(C(F)F)cc3nc(C)n(CCOc4ccc(Cl)cc4-c4cc(C)nc5c(C(=O)O)csc45)c(=O)c3c2C#N)cc(C)n1` [compound 1385], under setting [3], the IC50 is 7.24 nM.
In the case of `Cc1sc2c(-c3cc(Cl)ccc3OCCn3c(C)nc4cc(C(F)(F)F)c(N5CCN(C)CC5)c(C#N)c4c3=O)ccnc2c1C(=O)O` [compound 1093], the IC50 runs as follows: under setting [1], 50 to 1000 nM; under setting [2], 58.6 nM.
For `Cc1cc(-c2cc(Cl)ccc2OCCn2c(C)nc3ccc(CN4CCN(C)CC4)c(C#N)c3c2=O)c2scc(C(=O)O)c2n1` [compound 647], in that order: below 50 nM and 19.8 nM.
For `Cc1nc2cc(C(F)(F)F)c(N3CCN(c4ccccn4)CC3)c(C#N)c2c(=O)n1CCOc1ccc(Cl)cc1-c1cccc(C(=O)O)c1` [compound 379], in that order: below 50 nM and 26.7 nM.
Regarding `Cc1nc2cnc(N(C)C3CCN(C4CC(F)(F)C4)CC3)c(C#N)c2c(=O)n1CC#Cc1ccc(Cl)cc1-c1ccnc2c(C(=O)NS(C)(=O)=O)csc12` [compound 1589], under setting [3], the IC50 is 12.4 nM.
For the molecule `Cc1cc(-c2cc(Cl)ccc2OCCn2c(C)nc3cc(C(F)(F)F)c(-c4cnccc4F)c(C#N)c3c2=O)c2scc(C(=O)O)c2n1` [compound 343], the IC50 reads like this: under setting [1], below 50 nM; under setting [2], 41.8 nM.
For `Cc1nc2cc(C(F)(F)F)c(CN3CCOCC3)c(C#N)c2c(=O)n1CCOc1ccc(Cl)cc1-c1ccnc2c(C(=O)O)csc12` [compound 501], in that order: below 50 nM and 25.7 nM.
Consider `Cc1nc2cnccc2c(=O)n1CCOc1ccc(Cl)cc1-c1cccc(P(=O)(O)O)c1` [150FC], for which, under setting [2], the IC50 was 124 nM.
With `Cc1cc(-c2cc(Cl)ccc2OCCn2c(C)nc3cc(C(F)(F)F)c(-n4cccn4)c(C#N)c3c2=O)c2scc(C(=O)O)c2n1` [compound 633], the IC50 is, setting by setting: under setting [1], below 50 nM; under setting [2], 12.9 nM.
For `Cc1nc2cc(C(F)(F)F)cc(C#N)c2c(=O)n1CCOc1ccc(Cl)cc1-c1ccnc2c(C(=O)O)c(C(C)C)sc12` [compound 667], in that order: below 50 nM and 46.7 nM.
For `Cc1cc(-c2cc(Cl)ccc2OCCn2c(C)nc3cnc(C(C)(C)C)c(C#N)c3c2=O)c2scc(C(=O)O)c2n1` [compound 420], in that order: below 50 nM and 9.6 nM.
On to `Cc1nc2cnc(N3CCN(CC(F)(F)F)CC3)c(C#N)c2c(=O)n1CCOc1ccc(Cl)cc1-c1ccnc2c(C(=O)O)csc12` [compound 1304], for which the IC50 under setting [3] is 18.5 nM.
Still for that read-out and setting: the result for `Cc1c(C(F)(F)F)c(N2CCN(C)CC2)c(C#N)c2c(=O)n(CCOc3ccc(Cl)cc3-c3ccnc4c(C(=O)O)csc34)c(C)nc12` [compound 1934] reads 38.5 nM.
Same read-out and setting: the result for `Cc1nc2cc3c(c(C#N)c2c(=O)n1CCOc1ccc(Cl)cc1-c1ccnc2c(C(=O)O)csc12)S(=O)(=O)N(C)CC3` [compound 1954] reads 17 nM.
Turning to `Cc1nc2cc(C(F)(F)F)nc(C#N)c2c(=O)n1CCOc1ccc(Cl)cc1-c1cccc(C(=O)O)c1` [compound 154], the IC50 under setting [1] was 50 to 1000 nM.
As for `Cc1cc(-c2cc(Cl)ccc2OCCn2c(C)nc3cc(C(F)(F)F)c(N4CC(F)(F)C4)c(C#N)c3c2=O)c2scc(C(=O)O)c2n1` [compound 687], the IC50 was below 50 nM under setting [1] and 13.5 nM under setting [2].
Taken in the same sequence, the figures for `Cc1cc(-c2c(CF)cc3nc(C)n(CCOc4ccc(Cl)cc4-c4cc(C)nc5c(C(=O)O)csc45)c(=O)c3c2C#N)cc(C)n1` [compound 933] were 50 to 1000 nM and 122 nM.
On to `Cc1nc2cnc(N3CCN(C(C)(C)CCC(F)(F)F)CC3)c(C#N)c2c(=O)n1CCOc1ccc(Cl)cc1-c1ccnc2c(C(=O)O)csc12` [compound 1400], for which the IC50 under setting [3] was 27.8 nM.
On the same count and under the same terms, the result for `N#Cc1cncc2nc(C(F)F)n(CCOc3ccc(Cl)cc3-c3cccc(C(=O)O)c3)c(=O)c12` [compound 1983] reads 82.6 nM; that for `Cc1cc(-c2cc(Cl)ccc2OCCn2c(C)nc3cc(C(F)(F)F)c(-c4cnc(C)c(F)c4)c(C#N)c3c2=O)c2scc(C(=O)O)c2n1` [compound 1383], 5.03 nM.
For the molecule `O=C(O)c1cccc(-c2cc(Cl)ccc2OCCn2cnc3c(F)cccc3c2=O)c1` [compound 76], the IC50 is above 1000 nM under setting [1] and 2300 nM under setting [2].
Take `Cc1nc2ccc(C(F)(F)F)c(C#N)c2c(=O)n1CCOc1ccc(Cl)cc1-c1ccnc2c(C(=O)O)csc12` [compound 1935]: the IC50 under setting [3] is 80.1 nM.
Take `Cc1nc2cnc(N3CCN(CC(F)F)C4CC43)c(C#N)c2c(=O)n1CCOc1ccc(Cl)cc1-c1ccnc2c(C(=O)O)csc12` (stereo not shown) [compound 824]: the IC50 by setting is: under setting [1], below 50 nM; under setting [2], 13.6 nM.
As for `Cc1nc2cc(C(F)(F)F)c(N3CCN(CCO)CC3)c(C#N)c2c(=O)n1CCOc1ccc(Cl)cc1-c1ccnc2ccsc12` [compound 852], the IC50 under setting [1] is below 50 nM and the IC50 under setting [2] was 21.4 nM.
Turning to `Cc1nc2cnc(N3CCC(N4CCC(F)(F)CC4)CC3)c(C#N)c2c(=O)n1CC#Cc1ccc(Cl)cc1-c1ccnc2c(C(=O)O)csc12` [compound 1180], under setting [1], the IC50 is below 50 nM.
